Data reported in ChEMBL document CHEMBL2380242, “Discovery of novel orally bioavailable GPR40 agonists” (Bioorg Med Chem Lett, 2013).
pEC50: −log10 of the molar value. Calls of active or inactive are those of the source. The rule behind the calls is not given here.

system: Mus musculus; test: Antidiabetic activity in high fat feasted ICR mouse assessed as reduction of blood glucose excursion at 50 mg/kg, po administered 15 mins prior to dextrose challenge measured for 120 mins by OGTT; assay type: functional, organism-based; design: dose 50 mg/kg

| Structure (SMILES) | Activity |
| --- | --- |
| Cc1cc(OCCCS(C)(=O)=O)cc(C)c1-c1ccc(F)c([C@@H]2COc3cc4c(cc3O2)OC[C@H]4CC(=O)O)c1 | inactive |
| Cc1cc(OCCCS(C)(=O)=O)cc(C)c1-c1ccc(F)c([C@H]2COc3cc4c(cc3O2)OC[C@H]4CC(=O)O)c1 | Active |

target: T1, Free fatty acid receptor 1 (Homo sapiens, UniProt O14842); test: Agonist activity at human GPR40 transfected in CHO cells by calcium flux assay relative to TAK-875; assay type: functional, cell-based
T1 sequence (O14842 whole entry): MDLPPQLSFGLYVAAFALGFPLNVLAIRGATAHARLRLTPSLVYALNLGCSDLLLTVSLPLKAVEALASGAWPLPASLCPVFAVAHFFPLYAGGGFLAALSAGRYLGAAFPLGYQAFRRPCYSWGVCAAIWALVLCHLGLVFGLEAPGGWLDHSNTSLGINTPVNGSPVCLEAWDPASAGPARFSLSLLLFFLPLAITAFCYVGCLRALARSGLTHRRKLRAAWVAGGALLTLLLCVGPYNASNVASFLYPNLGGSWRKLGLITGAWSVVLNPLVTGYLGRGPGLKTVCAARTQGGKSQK

| Emax [%] | Structure (SMILES) |
| --- | --- |
| 87 | Cc1cc(OCCCS(C)(=O)=O)cc(C)c1-c1ccc(F)c([C@@H]2COc3cc4c(cc3O2)OC[C@H]4CC(=O)O)c1 |
| 83 | Cc1cc(OCCCS(C)(=O)=O)cc(C)c1-c1ccc(F)c([C@H]2COc3cc4c(cc3O2)OC[C@H]4CC(=O)O)c1 |

target: T1, Free fatty acid receptor 1; test: Agonist activity at human GPR40 transfected in CHO cells by calcium flux assay; assay type: functional, cell-based

| pEC50 | Structure (SMILES) |
| --- | --- |
| 7.33 | Cc1cc(OCCCS(C)(=O)=O)cc(C)c1-c1ccc(F)c([C@@H]2COc3cc4c(cc3O2)OC[C@H]4CC(=O)O)c1 |
| 7.17 | Cc1cc(OCCCS(C)(=O)=O)cc(C)c1-c1ccc(F)c([C@H]2COc3cc4c(cc3O2)OC[C@H]4CC(=O)O)c1 |
